From patent US11066409B2, “Bicyclic nitrogen-containing heterocyclic derivatives and pharmaceutical composition comprising the same” (Shionogi & Co., Ltd., priority 2016, dated 2021) come the findings set out here.

human P2X7 receptor, sequence (Q99572 whole entry R270H): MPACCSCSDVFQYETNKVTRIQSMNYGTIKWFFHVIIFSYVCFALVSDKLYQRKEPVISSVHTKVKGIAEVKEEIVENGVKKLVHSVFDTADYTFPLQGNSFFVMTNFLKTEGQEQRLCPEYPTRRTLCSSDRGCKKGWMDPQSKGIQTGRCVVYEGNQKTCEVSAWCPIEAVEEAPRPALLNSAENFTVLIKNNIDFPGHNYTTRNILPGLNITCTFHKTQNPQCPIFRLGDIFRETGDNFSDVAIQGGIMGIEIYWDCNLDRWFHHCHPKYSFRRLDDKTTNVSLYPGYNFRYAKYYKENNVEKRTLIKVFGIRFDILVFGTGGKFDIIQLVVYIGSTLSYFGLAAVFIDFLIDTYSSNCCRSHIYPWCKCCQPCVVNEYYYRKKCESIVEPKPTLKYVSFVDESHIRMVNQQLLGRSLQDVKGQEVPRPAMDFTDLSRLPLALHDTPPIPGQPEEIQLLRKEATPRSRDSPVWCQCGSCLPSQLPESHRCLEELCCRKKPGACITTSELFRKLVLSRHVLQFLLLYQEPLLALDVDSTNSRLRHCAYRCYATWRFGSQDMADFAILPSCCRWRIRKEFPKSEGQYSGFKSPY

The first assay addresses human P2X7 receptor (Homo sapiens (Human), UniProt Q99572, R270H). The experiment in a line: Evaluation of a human P2X7 receptor inhibitory activity (Yo-Pro uptake, BzATP stimulation, FLIPR TETRA). It counts as cell-based. Particulars: 1321N1 cells stably expressing human P2X7 receptor, Yo-Pro fluorescence. How it is done: Evaluation of a human P2X7 receptor inhibitory activity Stably expressing cell line (1321N1 cell transfected with the human P2X7 receptor gene (GenBank accession number NM_002562.5 including T606C and G952A SNP)) was used. The cells were seeded in a 384-well microtiter plate at a concentration of 8000 cells/well and cultured in the medium (10% fetal bovine serum, 25 mM HEPES, 1% penicillin and streptomycin in DMEM) for one day at 37° C. under 5% carbon dioxide atmosphere. After replacing with 20 μL of the HBSS buffer (20 mM HEPES, 55.6 mM D-glucose, 1× HBSS(−), pH7.4-7.5), 15 μL of 17.3 μM Yo-Pro solution in the HBSS buffer was added. The plate was placed in high-throughput cellular screening system FLIPR TETRA (Molecullar Devices, LLC.) and 15 μL of 130 μM BzATP solution in the HBSS buffer was added. Measurement of fluorescence intensity by FLIPR TETRA was started. After eight minutes, 15 μL of DMSO solutions containing different concentrations of the compound of the present invention as prepared by dilution with the HBSS buffer were dispensed to each well through the built-in automatic dispenser, and the measurement of fluorescence intensity was continued for 20 minutes. The maximum fluorescence intensity without the compound of the present invention is calculated as 0% inhibition and the maximum fluorescence intensity when the reference compound was added is calculated as 100% inhibition. Changing values of fluorescence intensity by the compound of the present invention were calculated by difference between maximum and minimum fluorescence intensity for 20 minutes. Inhibition ratios (%) were calculated from the following equation:
[formula] IC50 was calculated using logistic approximation.
As for IC50 value, value to below 10 nmol/L is represented as “A”, value from 10 nmol/L to below 100 nmol/L is represented as “B”, value from 100 nmol/L to below 500 nmol/L is represented as “C”, and value from 500 nmol/L to below 1 μmol/L is represented as “D”.
As a reminder, the IC50 is the midpoint of a concentration-inhibition curve. In turn, `CCc1nc(OC)ccc1Nc1nc(=O)cc2n1C(c1cc(F)cc(F)c1)CC2` (centres unmarked) [Compound I-0059] displayed an IC50 of 11 nM.

Turning to `Cc1nc2cc(C)c(Nc3nc(=O)cc4n3C(c3ccccc3)CN4)cc2s1` (centres unmarked) [Compound I-0100], half-maximal inhibition (IC50) required 12 nM.

Consider `Cc1ccccc1Nc1nc(=O)cc2n1C(c1ccccc1)CCC2` (centres unmarked) [Compound I-0004], for which half-maximal inhibition (IC50) required 37 nM. Same read-out and setting: as for `Cc1cc(C)c(Nc2nc(=O)cc3n2C(c2ccccc2)CN3C)cc1C` (centres unmarked) [Compound I-0106], the figure is 11 nM. As for `CCN1C(=O)N=C(Nc2cc(C)c(C)cc2C)N2C1=NCC2c1ccccc1` (centres unmarked) [Compound I-0107], half-maximal inhibition (IC50) required 25 nM.

Still in this assay, the particulars now being: 1321N1 cells stably expressing human P2X7 receptor, Yo-Pro fluorescence, class symbols.
For the compound `Cc1ccc(O[C@H]2C[C@H](CO)C2)cc1NC1=NC(=O)N(C)C2=NCC(c3cc(F)c(F)c(F)c3)N12` (some centres unmarked) [Compound I-0186], the IC50 lay within 10 to 100 nM. Take `COc1nc(C)c(Nc2nc(=O)cc3n2C(c2ccc(F)c(Cl)c2)CC3)cc1F` (centres unmarked) [Compound I-0094]: the IC50 is 10 to 100 nM. On the same count and under the same terms, as for `Cc1ccc(CC(F)(F)CO)cc1NC1=NC(=O)N(C)C2=NCC(c3cc(F)c(F)c(F)c3)N12` (centres unmarked) [Compound I-0184], the figure is 10 to 100 nM; as for `CCc1nc(OC)ccc1Nc1nc(=O)cc2n1C(c1cc(F)cc(F)c1)CC2` (centres unmarked) [Compound I-0059], 10 to 100 nM; as for `Cc1ccc(CO)cc1NC1=NC(=O)NC2=NCC(c3cc(F)c(F)c(F)c3)N21` (centres unmarked) [Compound I-0178], 10 to 100 nM. Still for that read-out and setting: as for `COc1cc(NC2=NC(=O)N(C)C3=NCC(c4ccc(F)c(F)c4)N23)c(C)nc1OC` (centres unmarked) [Compound I-0116], the figure is 100 to 500 nM; as for `COc1cc(C)c(Nc2nc(=O)cc3n2C(c2ccccc2)CC3)cc1F` (centres unmarked) [Compound I-0024], 10 to 100 nM; as for `Cc1ccc(C2=NCCO2)cc1NC1=NC(=O)N(C)C2=NCC(c3cc(F)c(F)c(F)c3)N12` (centres unmarked) [Compound I-0213], 10 to 100 nM. Compound `Cc1ccc(CCCO)cc1NC1=NC(=O)N(C)C2=NCC(c3cc(F)c(F)c(F)c3)N12` (centres unmarked) [Compound I-0181] showed an IC50 of 10 to 100 nM.

For the compound `COc1ccc([C@@H](C)NC2=NC(=O)N(C)C3=NCC(c4cc(F)c(F)c(F)c4)N23)cc1` (some centres unmarked) [Compound I-0207], the IC50 lay in the range of 100 to 500 nM.

In turn, `COc1cc(C)c(Nc2nc(=O)n(C)c3ncn(Cc4ccccc4)c23)cc1OC` [Compound I-0170] showed an IC50 of 10 to 100 nM. `COc1ccc(Nc2nc(=O)cc3n2C(c2cccc(F)c2)CC3)c(C)c1` (centres unmarked) [Compound I-0049] came in with a half-maximal inhibitory concentration (IC50) below 10 nM. Same read-out and setting: as for `COc1cc(C)c(Nc2nc(=O)cc3n2C(c2ccccc2)CC3)cc1OC` (centres unmarked) [Compound I-0010], the figure is below 10 nM; as for `COc1c2n(c(Nc3cc4sc(C)nc4cc3C)nc1=O)C(c1ccc(F)cc1)CC2` (centres unmarked) [Compound I-0036], 10 to 100 nM. Still for that read-out and setting: as for `COc1cc(C)c(Nc2nc(=O)cc3n2C(c2ccccc2)CC3)cn1` (centres unmarked) [Compound I-0030], the figure is 100 to 500 nM. The compound `COc1ccc(NC2=NC(=O)N(C)C3=NCC(c4ccc(F)c(F)c4)N23)c(C)n1` (centres unmarked) [Compound I-0127] returned an IC50 of 10 to 100 nM. For `COc1ccc(Nc2nc(=O)cc3n2C(c2ccc(F)cc2)CC3)c(C)c1` (centres unmarked) [Compound I-0023], the IC50 is below 10 nM. `COc1cc(C)c(NC2=NC(=O)N(C)C3=NCC(c4cc(F)cc(F)c4)N23)cc1OC` (centres unmarked) [Compound I-0132]: the IC50 lay within 10 to 100 nM. Same read-out and setting: as for `COc1ccc(/N=c2\[nH]c(=O)cc3n2C(c2ccc(F)cc2)CC3)c(C)n1` (centres unmarked) [Compound I-0070], the figure is 10 to 100 nM. `COc1ccc(Nc2nc(=O)cc3n2C(c2ccccc2)CC3)cc1OC` (centres unmarked) [Compound I-0019] had an IC50 below 10 nM.

On to `Cc1ccc(CO)cc1NC1=NC(=O)N(C)C2=NCC(c3cc(F)nc(F)c3)N12` (centres unmarked) [Compound I-0195], for which the IC50 fell in the range of 10 to 100 nM. The compound `Cc1cc(OC(F)F)ccc1Nc1nc(=O)cc2n1C(c1ccc(F)cc1)CC2` (centres unmarked) [Compound I-0077] came in with an IC50 below 10 nM. Turning to `Cc1c(Cl)cccc1Nc1nc(=O)cc2n1C(c1ccccc1)CO2` (centres unmarked) [Compound I-0002], the IC50 was below 10 nM. The compound `Cc1cc(Nc2nc(=O)cc3n2C(c2ccccc2)CC3)c(C)cc1Cl` (centres unmarked) [Compound I-0011] displayed an IC50 below 10 nM. `CCc1c2n(c(Nc3ccc(OC)nc3C)nc1=O)C(c1cc(F)cc(F)c1)CC2` (centres unmarked) [Compound I-0092] gave an IC50 of 10 to 100 nM. `CCN1C(=O)N=C(Nc2cc(OC)c(OC)cc2C)N2C1=NCC2c1ccc(F)cc1` (centres unmarked) [Compound I-0138] yielded an IC50 of 10 to 100 nM. Take `Cc1nc2cc(C)c(Nc3nc(=O)cc4n3C(c3ccccc3)CN4C)cc2s1` (centres unmarked) [Compound I-0103]: the IC50 lay within 10 to 100 nM. Still for that read-out and setting: as for `COc1cc(Nc2nc(=O)cc3n2C(c2ccccc2)CC3)c(C)cn1` (centres unmarked) [Compound I-0035], the figure is 100 to 500 nM; as for `COc1ccc(NC2=NC(=O)N(C)C3=NCC(c4cc(F)c(F)c(F)c4)N23)c(C)n1` (centres unmarked) [Compound I-0143], 10 to 100 nM; as for `COc1cc(C)c(Nc2nc(=O)cc3n2C(c2ccccc2)CC3)cc1C` (centres unmarked) [Compound I-0020], below 10 nM. The same measure, in the same setting: as for `COc1cc(NC2=NC(=O)N(C)C3=NCC(c4cc(F)c(F)c(F)c4)N23)c(C)nc1OC` (centres unmarked) [Compound I-0167], the figure is 100 to 500 nM. In turn, `Cc1ccc(OCC#N)cc1NC1=NC(=O)N(C)C2=NCC(c3cc(F)c(F)c(F)c3)N12` (centres unmarked) [Compound I-0200] displayed an IC50 of 10 to 100 nM. In the case of `CCc1ccc(CO)cc1NC1=NC(=O)NC2=NCC(c3cc(F)c(F)c(F)c3)N21` (centres unmarked) [Compound I-0180], the half-inhibitory concentration (IC50) is 10 to 100 nM.

`COc1ccc(Nc2nc(=O)c(-c3ccccc3)c3n2C(c2cc(F)cc(F)c2)CC3)c(C)n1` (centres unmarked) [Compound I-0089] displayed an IC50 of 10 to 100 nM. `COc1ccc(Nc2nc(=O)cc3n2C(c2cc(F)cc(F)c2)CC3)c(C)n1` (centres unmarked) [Compound I-0047] had a half-inhibitory concentration (IC50) of 10 to 100 nM. Take `Cc1ccc(NC2=NC(=O)N(C)C3=NCC(c4cc(F)cc(F)c4)N23)c(C)n1` (centres unmarked) [Compound I-0114]: the IC50 was 100 to 500 nM. The same measure, in the same setting: as for `COc1nc(C)c(Nc2nc(=O)cc3n2C(c2cc(F)cc(F)c2)CC3)cc1F` (centres unmarked) [Compound I-0072], the figure is 10 to 100 nM; as for `CCN1C(=O)N=C(Nc2cc(OC)ccc2C)N2C1=NCC2c1ccc(F)cc1` (centres unmarked) [Compound I-0139], 10 to 100 nM. Compound `COc1cc(Nc2nc(=O)c(OC)c3n2C(c2ccccc2)CC3)c(C)cc1F` (centres unmarked) [Compound I-0045] came in with an IC50 of 10 to 100 nM. As for `COc1cc(/N=c2\[nH]c(=O)c(F)c3n2C(c2ccc(F)cc2F)CC3)c(C)cc1F` (centres unmarked) [Compound I-0062], the IC50 was in the range of 10 to 100 nM.

For `Cc1cc2c(cc1/N=c1\[nH]c(=O)c(F)c3n1C(c1ccc(F)cc1)CC3)COC2` (centres unmarked) [Compound I-0074], the IC50 is below 10 nM. Still for that read-out and setting: as for `COc1cnc(C)c(Nc2nc(=O)cc3n2C(c2cc(F)cc(F)c2)CC3)c1` (centres unmarked) [Compound I-0071], the figure is 10 to 100 nM; as for `Cc1cc2c(cc1Nc1nc(=O)cc3n1C(c1ccc(F)cc1)CC3)COC2` (centres unmarked) [Compound I-0067], below 10 nM.

Compound `COc1ccc(C)c(Nc2nc(=O)n(C)c3ncn(Cc4ccccc4)c23)c1` [Compound I-0173] showed an IC50 of 500 to 1000 nM.

In the case of `COc1ccc(Nc2nc(=O)c(OC)c3n2C(c2ccccc2)CC3)c(C)c1` (centres unmarked) [Compound I-0052], the IC50 was 10 to 100 nM. Same read-out and setting: as for `COc1ccc(NC2=NC(=O)N(C)C3=NCC(c4cc(F)cc(F)c4)N23)c(C)c1F` (centres unmarked) [Compound I-0137], the figure is 10 to 100 nM. The same measure, in the same setting: as for `COc1ccc(Nc2nc(=O)cc3n2C(c2cc(F)cc(F)c2)CC3)c(C)c1` (centres unmarked) [Compound I-0038], the figure is below 10 nM; as for `CCc1cc(Nc2nc(=O)cc3n2C(c2ccccc2)CC3)c(C)cc1OC` (centres unmarked) [Compound I-0039], below 10 nM.

The compound `COc1ccc(Nc2nc(=O)cc3n2C(c2cc(F)c(F)c(F)c2)CC3)c(C)n1` (centres unmarked) [Compound I-0048] had an IC50 of 10 to 100 nM. The same measure, in the same setting: as for `COCCc1ccc(C)c(NC2=NC(=O)N(C)C3=NCC(c4cc(F)c(F)c(F)c4)N23)c1` (centres unmarked) [Compound I-0202], the figure is 10 to 100 nM; as for `Cc1cc(F)c(C2=NCCO2)cc1NC1=NC(=O)N(C)C2=NCC(c3cc(F)c(F)c(F)c3)N12` (centres unmarked) [Compound I-0214], 10 to 100 nM; as for `COCC(F)(F)c1ccc(C)c(NC2=NC(=O)N(C)C3=NCC(c4cc(F)c(F)c(F)c4)N23)c1` (centres unmarked) [Compound I-0205], 10 to 100 nM. Same read-out and setting: as for `Cc1cc2c(cc1/N=c1\[nH]c(=O)c(F)c3n1C(c1ccc(F)cc1F)CC3)COC2` (centres unmarked) [Compound I-0073], the figure is 10 to 100 nM; as for `COc1cc(NC2=NC(=O)N(C)C3=NCC(c4cc(F)c(F)c(F)c4)N23)c(C)cc1C#N` (centres unmarked) [Compound I-0209], 10 to 100 nM. In the case of `Cc1ccc(C#N)cc1NC1=NC(=O)N(C)C2=NCC(c3cc(F)cc(F)c3)N12` (centres unmarked) [Compound I-0146], the IC50 was 10 to 100 nM.

Take `COc1cc(Nc2nc(=O)cc3n2C(c2ccccc2)CC3)c(C)cc1Cl` (centres unmarked) [Compound I-0027]: the IC50 was below 10 nM. Still for that read-out and setting: as for `COc1ccc(/N=c2\[nH]c(=O)c(F)c3n2C(c2ccc(F)cc2F)CC3)c(C)n1` (centres unmarked) [Compound I-0093], the figure is 100 to 500 nM.
